Source: US20240109893A1, “PREPARATION AND APPLICATION METHOD OF HETEROCYCLIC COMPOUNDS AS KRAS INHIBITOR” (SHANGHAI KECHOW PHARMA, INC., priority 2020, published 2024)

Columns and labels:
[1] = tested on: H358 cells; assay: Cell activity experiment: activity test of H358 cells (MTT, 5 days); type: cell-based; settings: 5 days incubation, absorbance 492 nm
In short: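 H358 cells seeded 90 μL at 55555 cells/mL, grown 24 h, then exposed to 3-fold serial compound dilutions (final top 10000 nM, 0.5% DMSO) in triplicate for 5 days at 37° C., 5% CO2. Viability by MTT (4 h), formazan dissolved in DMSO, absorbance at 492 nm.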

[2] = molecular target: KRAS G12C-GDP (Homo sapiens (Human), UniProt P01116, G12C); assay: KRAS G12C-GDP exchange test (SOS/cRAF/GTP, HTRF); type: biochemical; settings: 1 h premix with compound, 2 h reaction with SOS, cRAF, GTP
Method: 2. A mixture of SOS (Pharmaron, ZZY-20190823), cRAF (Pharmaron, ZZY-20190823), GTP (Sigma, A6885-100MG), MAb Anti 6HIS-d2/MAb Anti GST-Eu (Cisbio, 61HISDLB/61GSTKLB) was added for a catalyzed reaction for 2 h.
3. The fluorescence signals of the emitted light at 615 nm and 665 nm under 320 nm excitation light were read by Biotek Microplate Reader (Synergy4).
4. The IC50 (median inhibitory concentration) of the compound was obtained by the following non-linear fitting formula: Y=Bottom+(Top−Bottom)/(1+10^((Log IC50−X)*Hill Slope)), and the data were analyzed by Graphpad 6-0 software.

[3] = Pharmacokinetic experiment in SD rats; type: in vivo; settings: male, Sprague-Dawley, rat, plasma, po, 10 mg/kg; read-out: Oral bioavailability, F %
Method: Pharmacokinetic Experiment in SD Rats:
1. SPF male rats were randomly divided into groups. The compounds to be tested were separately administered by intravenous injection and oral gavage, with 3 animals for each compound to be tested in each mode of administration. The administration solvent was 5% DMSO+10% Solutol+85% normal saline or 85% PBS, and the substances to be tested were dissolved in the solvent to obtain clear solutions. Administration concentration and volume: 1) a single intravenous injection of 0.6 mg/mL of the compound to be tested, with an administration volume of 5 mL/kg and an administration dosage of 3 mg/kg; and 2) a single oral gavage of 1 mg/mL of the compound to be tested, with an administration volume of 10 mL/kg and an administration dosage of 10 mg/kg. The rats were fasted overnight (10-14 h) before administration and fed 4 h after administration.
2. Blood was collected via the jugular vein or by other appropriate methods at 200 μL per time point and anticoagulated with K2-EDTA, and after collection, the blood was placed on ice and centrifuged for plasma within 1 h (centrifugation conditions: 6800 g, 6 min 2-8° C.). The points for blood sampling from the animals in the intravenous injection group were respectively: before administration, and 5 min, 15 min, 30 min, 1 h, 2 h, 4 h, 8 h, and 24 h after administration; and the points for blood sampling from the animals in the oral administration group were respectively: before administration, and 15 min, 30 min, 1 h, 2 h, 4 h, 6 h, 8 h, and 24 h after administration.
3. The blood concentration was detected, and the pharmacokinetic parameter AUC(0-t) was calculated by Phoenix WinNonlin based on the blood concentration data at various time points. When the pharmacokinetic parameters were calculated, the BLQ before Cmax (including ‘No peak’) was calculated as 0: and BLQ after Cmax (including ‘No peak’) was not involved in the calculation.

Chain of KRAS G12C-GDP (P01116-2 other isoform, or with tags, fused parts or gaps G12C): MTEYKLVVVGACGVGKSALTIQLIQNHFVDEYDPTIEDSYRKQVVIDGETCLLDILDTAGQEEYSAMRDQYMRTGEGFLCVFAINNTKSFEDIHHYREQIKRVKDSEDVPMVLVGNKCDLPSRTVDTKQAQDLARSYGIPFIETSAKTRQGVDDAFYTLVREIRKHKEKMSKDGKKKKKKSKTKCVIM

IC50 [1] | IC50 [2] | bioavailability [3] | IC50 ([1]; Homo sapiens, NCI-H358, 120 h) | Compound
4 nM | 0.59 nM | 16.9% | – | C=C(F)C(=O)N1CCN(c2nc(OC[C@@]34CCCN3C[C@H](F)C4)nc3c(F)c(-c4cccc5c4CC4CC54)ncc23)C[C@@H]1CC#N (single isomer, unassigned) [Example 879]
– | 0.89 nM | 28.6% | 0.7 nM | C=C(F)C(=O)N1CCN(c2nc(OC[C@@H]3CCCN3C)nc3c(F)c(-c4cccc5cccc(Cl)c45)ccc23)C[C@@H]1CC#N [Example 903]
2.65 nM | 1.02 nM | 25.9% | – | C=C(F)C(=O)N1CCN(c2nc(OC[C@@]34CCCN3C[C@H](F)C4)nc3c(F)c(-c4cccc5c4CC4CC54)ccc23)C[C@@H]1CC#N (single isomer, unassigned) [Example 887]
